Reference: patent publication US11945822B2, “Pyrazolo-triazine and/or pyrazolo-pxrimidine derivatives as selective inhibitor of cyclin dependent kinase” (QURIENT CO., LTD., priority 2018, dated 2024)

Target: T1, CDK5/p25 (Homo sapiens, UniProt Q00535)
T1 construct: purchased Invitrogen PR8543B
Test: Enzymatic assay for CDK5 (FRET based LANCE Ultra kinase assay)
Type: biochemical
Settings: read-out: CDK5 enzymatic activity (IC50 range)
In short: (§1)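 TR-FRET (LANCE Ultra) kinase assay at ATP Km, ULight-MBP peptide substrate (68 nM), 8-dose 4-fold compound series in DMSO. Enzymes: […]; 60 min at 23° C., stopped with EDTA plus Eu-anti-phospho-MBP antibody, read 665/615 nm after 60 min.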

T1 sequence (Q00535 whole entry): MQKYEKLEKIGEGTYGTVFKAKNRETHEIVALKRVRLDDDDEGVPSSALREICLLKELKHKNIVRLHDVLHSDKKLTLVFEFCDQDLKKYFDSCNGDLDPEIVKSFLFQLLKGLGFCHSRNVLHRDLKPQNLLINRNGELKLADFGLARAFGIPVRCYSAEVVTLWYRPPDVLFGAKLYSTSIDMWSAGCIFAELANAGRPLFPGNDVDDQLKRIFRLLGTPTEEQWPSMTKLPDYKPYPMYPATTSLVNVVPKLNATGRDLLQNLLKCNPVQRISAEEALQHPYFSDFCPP
T1 sequence (Q15078 99-307 partner limits assumed): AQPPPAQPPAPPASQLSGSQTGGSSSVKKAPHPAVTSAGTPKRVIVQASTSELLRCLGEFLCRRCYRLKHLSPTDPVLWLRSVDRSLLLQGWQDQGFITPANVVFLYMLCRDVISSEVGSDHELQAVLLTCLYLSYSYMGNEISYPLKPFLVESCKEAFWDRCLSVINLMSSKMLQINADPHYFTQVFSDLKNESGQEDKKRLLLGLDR

IC50 [nM] | Structure (SMILES)
< 100 | CC(=O)Nc1ccc2[nH]c(-c3ccccc3CNc3nc(N4CCC(N)CC4)nc4c(C(C)C)cnn34)cc2c1 [Compound 116]
100 to 1000 | CC(C)c1cnn2c(NCc3c(Cl)cccc3C#N)nc(N3CCC(N)CC3)nc12 [Compound 242]
> 1000 | CC(C)c1cnn2c(NCc3ccccc3-c3ccc4cc(C(C)(C)O)ccc4n3)nc(N3CCC(O)(CN)CC3)nc12 [Compound 243]

Tested on: RPMI-8226
Test: Cellular RPMI-8226 viability assay (CellTiter-Glo, 72 hours)
Type: cell-based
Settings: Homo sapiens
In short: (§2)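 Steps: seed cells at per-line density; add compound, DMSO vehicle kept under 0.1% final; incubate 72 h, 37 °C, 5% CO2; lyse with CellTiter-Glo and read luminescence; run in duplicate.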

IC50 [nM] | Structure (SMILES)
< 1000 | CC(=O)Nc1ccc2[nH]c(-c3ccccc3CNc3nc(N4CCC(N)CC4)nc4c(C(C)C)cnn34)cc2c1 [Compound 116]

Tested on: H460
Test: Cellular H460 viability assay (CellTiter-Glo, 72 hours)
Type: cell-based
Settings: Homo sapiens, NCI-H460
In short: as §2

IC50 [nM] | Structure (SMILES)
< 1000 | CC(=O)Nc1ccc2[nH]c(-c3ccccc3CNc3nc(N4CCC(N)CC4)nc4c(C(C)C)cnn34)cc2c1 [Compound 116]
< 1000 | CC(C)c1cnn2c(NCc3c(Cl)cccc3C#N)nc(N3CCC(N)CC3)nc12 [Compound 242]
< 1000 | CC(C)c1cnn2c(NCc3ccccc3-c3ccc4cc(C(C)(C)O)ccc4n3)nc(N3CCC(O)(CN)CC3)nc12 [Compound 243]

Target: T2, CDK2/Cyclin A (Homo sapiens, UniProt P24941)
T2 construct: purchased Invitrogen PV6290
Test: Enzymatic assay for CDK2 (FRET based LANCE Ultra kinase assay)
Type: biochemical
Settings: read-out: CDK2 enzymatic activity (IC50 range)
In short: as §1

IC50 [nM] | Structure (SMILES)
< 100 | CC(=O)Nc1ccc2[nH]c(-c3ccccc3CNc3nc(N4CCC(N)CC4)nc4c(C(C)C)cnn34)cc2c1 [Compound 116]
100 to 1000 | CC(C)c1cnn2c(NCc3c(Cl)cccc3C#N)nc(N3CCC(N)CC3)nc12 [Compound 242]
> 1000 | CC(C)c1cnn2c(NCc3ccccc3-c3ccc4cc(C(C)(C)O)ccc4n3)nc(N3CCC(O)(CN)CC3)nc12 [Compound 243]

Tested on: MV4-11
Test: Cellular MV4-11 viability assay (CellTiter-Glo, 72 hours)
Type: cell-based
Settings: Homo sapiens
In short: as §2

IC50 [nM] | Structure (SMILES)
< 1000 | CC(=O)Nc1ccc2[nH]c(-c3ccccc3CNc3nc(N4CCC(N)CC4)nc4c(C(C)C)cnn34)cc2c1 [Compound 116]
< 1000 | CC(C)c1cnn2c(NCc3c(Cl)cccc3C#N)nc(N3CCC(N)CC3)nc12 [Compound 242]
< 1000 | CC(C)c1cnn2c(NCc3ccccc3-c3ccc4cc(C(C)(C)O)ccc4n3)nc(N3CCC(O)(CN)CC3)nc12 [Compound 243]

Target: T3, CDK7/Cyclin H/MNAT1 (Homo sapiens, UniProt P50613)
T3 construct: purchased Invitrogen PR6749B
T3 sequence (P50613 whole entry): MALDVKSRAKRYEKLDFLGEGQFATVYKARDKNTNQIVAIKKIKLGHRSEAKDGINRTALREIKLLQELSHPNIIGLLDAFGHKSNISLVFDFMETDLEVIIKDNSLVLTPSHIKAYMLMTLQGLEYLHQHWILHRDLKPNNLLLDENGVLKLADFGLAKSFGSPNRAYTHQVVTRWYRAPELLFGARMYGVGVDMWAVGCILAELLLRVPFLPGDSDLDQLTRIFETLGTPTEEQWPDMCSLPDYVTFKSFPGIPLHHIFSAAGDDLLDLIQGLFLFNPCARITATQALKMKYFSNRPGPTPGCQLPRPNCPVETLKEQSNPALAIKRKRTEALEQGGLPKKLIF
T3 sequence (P51946 whole entry partner): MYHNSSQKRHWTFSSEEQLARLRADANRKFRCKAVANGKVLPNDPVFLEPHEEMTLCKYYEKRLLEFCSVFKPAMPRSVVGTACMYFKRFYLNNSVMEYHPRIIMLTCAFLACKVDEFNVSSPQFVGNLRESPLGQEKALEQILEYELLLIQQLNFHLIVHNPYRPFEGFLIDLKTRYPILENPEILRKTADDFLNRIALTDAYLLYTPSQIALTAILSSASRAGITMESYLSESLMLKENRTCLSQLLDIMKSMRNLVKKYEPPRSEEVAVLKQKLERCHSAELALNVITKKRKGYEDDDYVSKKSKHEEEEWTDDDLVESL
T3 sequence (P51948 whole entry partner): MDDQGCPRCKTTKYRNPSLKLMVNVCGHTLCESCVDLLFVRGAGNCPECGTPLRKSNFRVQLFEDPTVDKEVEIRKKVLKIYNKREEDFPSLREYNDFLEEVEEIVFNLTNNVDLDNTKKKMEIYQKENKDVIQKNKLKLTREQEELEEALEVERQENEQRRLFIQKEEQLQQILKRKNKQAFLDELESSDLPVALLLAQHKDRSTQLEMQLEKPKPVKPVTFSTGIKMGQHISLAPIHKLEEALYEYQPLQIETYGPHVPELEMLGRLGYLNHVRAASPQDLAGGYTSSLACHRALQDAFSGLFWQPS
Test: Enzymatic assay for CDK7 (FRET based LANCE Ultra kinase assay)
Type: biochemical
Settings: CDK7 over CDK1
In short: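 LANCE Ultra TR-FRET kinase assay using a ULight-labeled peptide substrate and a Eu-labeled anti-phospho antibody, with ATP at its Km. Purified CDK/cyclin complex was added to compound after brief centrifugation.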

CDK1/CDK7: Selectivity of CDK7 inhibition over CDK1 inhibition | Structure (SMILES)
A (A=greater than 200 fold) | CC(C)c1cnn2c(NCc3c(Cl)cccc3C#N)nc(N3CCC(N)CC3)nc12 [Compound 242]
A (A=greater than 200 fold) | CC(C)c1cnn2c(NCc3ccccc3-c3ccc4cc(C(C)(C)O)ccc4n3)nc(N3CCC(O)(CN)CC3)nc12 [Compound 243]

Structure (SMILES) | CDK1/CDK7: Selectivity of CDK7 inhibition over CDK1 inhibition
CC(=O)Nc1ccc2[nH]c(-c3ccccc3CNc3nc(N4CCC(N)CC4)nc4c(C(C)C)cnn34)cc2c1 [Compound 116] | B (B=less than 200 fold, but greater than 20 fold)

Same assay, conditions: CDK7 over CDK2

Structure (SMILES) | CDK2/CDK7: Selectivity of CDK7 inhibition over CDK2 inhibition
CC(=O)Nc1ccc2[nH]c(-c3ccccc3CNc3nc(N4CCC(N)CC4)nc4c(C(C)C)cnn34)cc2c1 [Compound 116] | B (B=less than 200 fold, but greater than 20 fold)
CC(C)c1cnn2c(NCc3c(Cl)cccc3C#N)nc(N3CCC(N)CC3)nc12 [Compound 242] | B (B=less than 200 fold, but greater than 20 fold)
CC(C)c1cnn2c(NCc3ccccc3-c3ccc4cc(C(C)(C)O)ccc4n3)nc(N3CCC(O)(CN)CC3)nc12 [Compound 243] | A (A=greater than 200 fold)

Same assay, conditions: CDK7 over CDK5

CDK5/CDK7: Selectivity of CDK7 inhibition over CDK5 inhibition | Structure (SMILES)
C (C=less than 20 fold) | CC(=O)Nc1ccc2[nH]c(-c3ccccc3CNc3nc(N4CCC(N)CC4)nc4c(C(C)C)cnn34)cc2c1 [Compound 116]
A (A=greater than 200 fold) | CC(C)c1cnn2c(NCc3ccccc3-c3ccc4cc(C(C)(C)O)ccc4n3)nc(N3CCC(O)(CN)CC3)nc12 [Compound 243]

Structure (SMILES) | CDK5/CDK7: Selectivity of CDK7 inhibition over CDK5 inhibition
CC(C)c1cnn2c(NCc3c(Cl)cccc3C#N)nc(N3CCC(N)CC3)nc12 [Compound 242] | B (B=less than 200 fold, but greater than 20 fold)

Same assay, conditions: read-out: CDK7 enzymatic activity (IC50 range)

IC50 [nM] | Structure (SMILES)
< 100 | CC(=O)Nc1ccc2[nH]c(-c3ccccc3CNc3nc(N4CCC(N)CC4)nc4c(C(C)C)cnn34)cc2c1 [Compound 116]
< 100 | CC(C)c1cnn2c(NCc3c(Cl)cccc3C#N)nc(N3CCC(N)CC3)nc12 [Compound 242]
< 100 | CC(C)c1cnn2c(NCc3ccccc3-c3ccc4cc(C(C)(C)O)ccc4n3)nc(N3CCC(O)(CN)CC3)nc12 [Compound 243]

Tested on: HCT116
Test: Cellular HCT116 viability assay (CellTiter-Glo, 72 hours)
Type: cell-based
Settings: Homo sapiens, HCT-116
In short: as §2

IC50 [nM] | Structure (SMILES)
< 1000 | CC(=O)Nc1ccc2[nH]c(-c3ccccc3CNc3nc(N4CCC(N)CC4)nc4c(C(C)C)cnn34)cc2c1 [Compound 116]

Tested on: A2780
Test: Cellular A2780 viability assay (CellTiter-Glo, 72 hours)
Type: cell-based
Settings: Homo sapiens
Description: Human T-cell acute lymphoblastic leukemia cell line, MOLT-4 (ATCC, Cat #CRL-1582), Human multiple myeloma cell line, RPMI-8226 (Invitrogen, Cat #22400-089) and MM.1S (ATCC, Cat #CRL-2974), NSCLC (Non-small cell lung cancer) cell line H460 (ATCC, Cat #HTB-177), Human colon colorectal carcinoma cell line HCT116 (ATCC, Cat #CCL-247), Human acute monocytic leukemia cell line MV4-11 (ATCC, Cat #CRL-9591), OVCAR-3 (ATCC, Cat #HTB-161) and A2780 (ECACC, Cat #93112519) were obtained from ATCC. Cells were grown in RPMI-1640 media (Invitrogen, Cat #22400-089) supplemented with 10% FBS (Invitrogen, Cat #10099141) and 1% penicillin/streptomycin (Invitrogen, Cat #15070063) and cultured at 37° C., 5% CO2 in a humidified chamber. All cell lines were routinely tested for mycoplasma.
The effect of the CDK7 inhibitor to inhibit the growth of target cancer cells was evaluated through the 72 hours time period of viability assay. Briefly, the candidate cell line ware plated in 96 well plate at the following density of cells respectively. 1×10^4 cells/well for MOLT-4, RPMI-8226, MV4-11 and MM.1S, 5×10^3 for H460, HCT116 and OVCAR-3 and IX 10^3 for A2780. After 24 hours, the cells were treated with various concentrations of the compound (ranging from 0.0015 uM to 10 uM). DMSO solvent without compound served as a control and final DMSO concentration less than 0.1%. After 72 hours of incubation at 37° C., 5% CO2 incubator, cells were analyzed for the viability using the CellTiter-Glo Luminescent Cell Viability Assay (Promega, Cat #G7570). All viability assays were performed in duplicate and Luminescence was read using an Envision (Perkin Elmer, USA). Data was analyzed using XLfit software.

IC50 [nM] | Structure (SMILES)
≤ 1000 | CC(C)c1cnn2c(NCc3c(Cl)cccc3C#N)nc(N3CCC(N)CC3)nc12 [Compound 242]
≤ 1000 | CC(C)c1cnn2c(NCc3ccccc3-c3ccc4cc(C(C)(C)O)ccc4n3)nc(N3CCC(O)(CN)CC3)nc12 [Compound 243]

Tested on: MOLT-4
Test: Cellular MOLT-4 viability assay (CellTiter-Glo, 72 hours)
Type: cell-based
Settings: Homo sapiens, MOLT4 viability assay
In short: as §2

IC50 [nM] | Structure (SMILES)
< 1000 | CC(=O)Nc1ccc2[nH]c(-c3ccccc3CNc3nc(N4CCC(N)CC4)nc4c(C(C)C)cnn34)cc2c1 [Compound 116]

Target: T4, CDK1/Cyclin B (Homo sapiens, UniProt P06493)
T4 construct: purchased Invitrogen PR4768C
T4 sequence (P06493 whole entry): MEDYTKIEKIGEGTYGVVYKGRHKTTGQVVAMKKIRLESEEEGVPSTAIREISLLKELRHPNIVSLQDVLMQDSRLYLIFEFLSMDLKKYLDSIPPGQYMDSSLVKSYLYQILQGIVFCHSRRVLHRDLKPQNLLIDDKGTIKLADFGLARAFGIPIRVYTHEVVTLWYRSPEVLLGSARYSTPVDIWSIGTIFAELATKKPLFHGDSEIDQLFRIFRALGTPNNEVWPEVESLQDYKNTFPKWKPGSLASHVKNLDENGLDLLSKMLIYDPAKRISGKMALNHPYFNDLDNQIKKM
T4 sequence (P14635 whole entry partner): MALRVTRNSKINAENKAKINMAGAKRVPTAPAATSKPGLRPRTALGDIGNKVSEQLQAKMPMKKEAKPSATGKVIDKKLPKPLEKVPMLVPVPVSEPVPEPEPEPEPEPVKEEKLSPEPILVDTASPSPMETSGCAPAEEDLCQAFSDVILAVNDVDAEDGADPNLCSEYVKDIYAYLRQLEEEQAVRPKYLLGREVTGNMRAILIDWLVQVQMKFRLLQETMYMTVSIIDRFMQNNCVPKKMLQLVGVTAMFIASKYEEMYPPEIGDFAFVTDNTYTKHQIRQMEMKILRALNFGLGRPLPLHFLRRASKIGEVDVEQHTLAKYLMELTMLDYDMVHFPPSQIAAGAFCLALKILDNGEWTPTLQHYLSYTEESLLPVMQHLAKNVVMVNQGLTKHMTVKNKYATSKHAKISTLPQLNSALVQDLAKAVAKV
Test: Enzymatic assay for CDK1 (FRET based LANCE Ultra kinase assay)
Type: biochemical
Settings: read-out: CDK1 enzymatic activity (IC50 range)
In short: as §1

IC50 [nM] | Structure (SMILES)
100 to 1000 | CC(=O)Nc1ccc2[nH]c(-c3ccccc3CNc3nc(N4CCC(N)CC4)nc4c(C(C)C)cnn34)cc2c1 [Compound 116]
> 1000 | CC(C)c1cnn2c(NCc3c(Cl)cccc3C#N)nc(N3CCC(N)CC3)nc12 [Compound 242]
> 1000 | CC(C)c1cnn2c(NCc3ccccc3-c3ccc4cc(C(C)(C)O)ccc4n3)nc(N3CCC(O)(CN)CC3)nc12 [Compound 243]
